Reference: ChEMBL document CHEMBL1201862, “PubChem BioAssay data set” (2004)
Activity calls are given as the source filed them.

Tests used:
[1] = target: DNA dC->dU-editing enzyme APOBEC-3A (Homo sapiens, UniProt P31941); test: Dose Response confirmation of small molecule APOBEC3A DNA Deaminase Inhibitors via a fluorescence-based single-stranded DNA deaminase assay. [Related pubchem assays (depositor defined):AID493011, AID493024]; format: functional
[2] = target: DNA dC->dU-editing enzyme APOBEC-3G (Homo sapiens, UniProt Q9HC16); format: functional;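 further: Dose-response counterscreen measuring inhibition of APOBEC3G DNA deaminase activity, run while confirming APOBEC3A inhibitors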
DNA dC->dU-editing enzyme APOBEC-3G, sequence (Q9HC16 whole entry): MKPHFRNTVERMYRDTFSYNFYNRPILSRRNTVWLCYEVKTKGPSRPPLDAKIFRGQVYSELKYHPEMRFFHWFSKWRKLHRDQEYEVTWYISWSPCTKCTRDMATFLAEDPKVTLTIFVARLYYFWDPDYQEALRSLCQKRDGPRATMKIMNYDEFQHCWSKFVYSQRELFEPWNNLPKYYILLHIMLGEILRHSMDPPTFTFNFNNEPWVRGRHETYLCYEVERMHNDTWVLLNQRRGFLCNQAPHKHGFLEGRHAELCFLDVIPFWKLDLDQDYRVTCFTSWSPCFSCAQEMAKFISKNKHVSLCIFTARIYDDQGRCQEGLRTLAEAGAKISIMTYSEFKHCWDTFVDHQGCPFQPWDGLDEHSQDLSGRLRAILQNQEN

[3] = HepG2 cell cytotoxicity, dose response, cytotoxicity control for Shn3 inhibitor project, CellTiter-Glo, cherry-picked (AID 624134); format: functional, cell-based
[4] = control 3'UTR Renilla luciferase suppression, dose response, counter-screen for Shn3 inhibitor project, cell-based, Clone20-Shn3RL, cherry-picked (AID 624133); format: functional
Coagulation factor XII = target: T1, Coagulation factor XII (Homo sapiens, UniProt P00748); format: functional;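 further: activated factor XIIa alpha cleaving a fluorogenic AMC peptide substrate; inhibitor potency from loss of enzyme activity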
T1 sequence (P00748 whole entry): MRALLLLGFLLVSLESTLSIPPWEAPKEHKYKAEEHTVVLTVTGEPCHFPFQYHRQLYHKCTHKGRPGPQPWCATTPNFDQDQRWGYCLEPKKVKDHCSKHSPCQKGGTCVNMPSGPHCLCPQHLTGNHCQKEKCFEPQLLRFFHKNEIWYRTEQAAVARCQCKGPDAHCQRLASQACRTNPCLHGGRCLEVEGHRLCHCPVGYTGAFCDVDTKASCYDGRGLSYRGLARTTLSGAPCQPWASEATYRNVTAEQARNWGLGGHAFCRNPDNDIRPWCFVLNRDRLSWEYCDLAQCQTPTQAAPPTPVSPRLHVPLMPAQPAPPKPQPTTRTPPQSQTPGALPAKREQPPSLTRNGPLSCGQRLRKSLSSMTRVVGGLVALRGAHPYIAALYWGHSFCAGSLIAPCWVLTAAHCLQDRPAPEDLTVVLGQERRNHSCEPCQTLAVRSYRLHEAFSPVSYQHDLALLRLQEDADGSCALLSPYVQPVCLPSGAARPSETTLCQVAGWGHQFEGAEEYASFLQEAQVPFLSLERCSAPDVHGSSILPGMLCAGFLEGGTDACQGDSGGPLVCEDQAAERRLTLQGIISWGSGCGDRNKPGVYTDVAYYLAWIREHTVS

INS1 = test: beta cell apoptosis inhibitors, cytokine rescue, dose response, luminescence, retest (AID 449756); format: functional, cell-based; conditions: Rattus norvegicus;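 further: cell death triggered by IL-1 beta plus TNF-alpha plus IFN-gamma mixture; protective hits raise ATP signal compared with cytokine alone wells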
[5] = Shn3 3'UTR reporter inhibitors, dose response, cell-based, Clone20 osteoblasts, firefly luciferase, cherry-picked (AID 624132); format: functional;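 further: firefly luciferase luminescence from reporter carrying the Shn3 3'UTR in osteoblasts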
[6] = cytotoxicity toward NIH3T3 fibroblasts, dose response, counter-screen, cell-based, ATP luminescence, mouse fibroblasts (AID 2010); format: functional;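 further: cells exposed to compound for about 90 hours before reading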
[7] = inhibitors of intracellular T. cruzi replication, confirmation, NIH3T3 host cells, beta-gal luminescence (AID 2044); format: functional, cell-based;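 further: intracellular parasites grown in NIH/3T3 mouse fibroblasts as host cells; luminescent beta-galactosidase reporter signal from transgenic T. cruzi replicating inside host cells; inhibitors lower the luminescence signal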
[8] = target: T2, Histone-lysine N-methyltransferase NSD2 (Homo sapiens, UniProt O96028); format: biochemical
T2 sequence (O96028 whole entry): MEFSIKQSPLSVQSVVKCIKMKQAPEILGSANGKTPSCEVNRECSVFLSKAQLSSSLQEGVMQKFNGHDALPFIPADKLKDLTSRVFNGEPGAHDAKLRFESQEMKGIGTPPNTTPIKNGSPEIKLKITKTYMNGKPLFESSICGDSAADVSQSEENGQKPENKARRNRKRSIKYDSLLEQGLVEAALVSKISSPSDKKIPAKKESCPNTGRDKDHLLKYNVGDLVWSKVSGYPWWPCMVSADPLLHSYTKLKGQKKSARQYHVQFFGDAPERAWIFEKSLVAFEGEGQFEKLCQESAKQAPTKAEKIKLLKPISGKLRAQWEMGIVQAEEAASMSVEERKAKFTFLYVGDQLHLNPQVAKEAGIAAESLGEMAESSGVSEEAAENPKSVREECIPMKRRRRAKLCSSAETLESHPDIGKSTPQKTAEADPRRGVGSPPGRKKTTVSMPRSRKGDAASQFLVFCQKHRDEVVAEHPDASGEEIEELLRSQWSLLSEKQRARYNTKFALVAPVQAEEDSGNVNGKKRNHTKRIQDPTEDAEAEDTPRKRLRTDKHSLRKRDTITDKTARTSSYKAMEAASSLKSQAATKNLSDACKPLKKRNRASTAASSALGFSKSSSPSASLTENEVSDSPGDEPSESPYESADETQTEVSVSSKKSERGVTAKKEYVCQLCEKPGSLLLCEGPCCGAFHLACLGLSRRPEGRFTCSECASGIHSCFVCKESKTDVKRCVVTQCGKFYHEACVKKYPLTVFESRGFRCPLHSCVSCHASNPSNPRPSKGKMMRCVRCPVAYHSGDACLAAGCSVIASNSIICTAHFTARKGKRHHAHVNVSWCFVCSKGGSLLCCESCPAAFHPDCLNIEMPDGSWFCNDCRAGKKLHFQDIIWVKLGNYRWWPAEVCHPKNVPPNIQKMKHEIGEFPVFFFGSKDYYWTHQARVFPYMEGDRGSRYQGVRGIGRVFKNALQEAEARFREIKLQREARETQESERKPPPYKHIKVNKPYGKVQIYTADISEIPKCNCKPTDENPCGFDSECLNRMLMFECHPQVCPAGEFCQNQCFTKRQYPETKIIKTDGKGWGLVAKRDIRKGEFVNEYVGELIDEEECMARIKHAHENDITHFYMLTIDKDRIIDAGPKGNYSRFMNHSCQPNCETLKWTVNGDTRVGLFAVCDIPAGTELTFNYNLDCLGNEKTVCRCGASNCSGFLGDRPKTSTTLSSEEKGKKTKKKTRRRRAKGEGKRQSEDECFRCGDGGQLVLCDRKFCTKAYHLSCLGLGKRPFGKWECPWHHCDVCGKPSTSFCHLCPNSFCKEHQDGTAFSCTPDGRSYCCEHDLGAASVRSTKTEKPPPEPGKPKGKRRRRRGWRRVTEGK

Aminopeptidase N = target: T3, Aminopeptidase N (Plasmodium falciparum FcB1/Columbia, UniProt O96935); test: P. falciparum M1AAP inhibitors, biochemical, fluorogenic H-Leu-NHMec substrate, 1536-well (AID 1445); set-up: species or system Plasmodium falciparum 3D7, 3D7
T3 sequence (O96935 whole entry): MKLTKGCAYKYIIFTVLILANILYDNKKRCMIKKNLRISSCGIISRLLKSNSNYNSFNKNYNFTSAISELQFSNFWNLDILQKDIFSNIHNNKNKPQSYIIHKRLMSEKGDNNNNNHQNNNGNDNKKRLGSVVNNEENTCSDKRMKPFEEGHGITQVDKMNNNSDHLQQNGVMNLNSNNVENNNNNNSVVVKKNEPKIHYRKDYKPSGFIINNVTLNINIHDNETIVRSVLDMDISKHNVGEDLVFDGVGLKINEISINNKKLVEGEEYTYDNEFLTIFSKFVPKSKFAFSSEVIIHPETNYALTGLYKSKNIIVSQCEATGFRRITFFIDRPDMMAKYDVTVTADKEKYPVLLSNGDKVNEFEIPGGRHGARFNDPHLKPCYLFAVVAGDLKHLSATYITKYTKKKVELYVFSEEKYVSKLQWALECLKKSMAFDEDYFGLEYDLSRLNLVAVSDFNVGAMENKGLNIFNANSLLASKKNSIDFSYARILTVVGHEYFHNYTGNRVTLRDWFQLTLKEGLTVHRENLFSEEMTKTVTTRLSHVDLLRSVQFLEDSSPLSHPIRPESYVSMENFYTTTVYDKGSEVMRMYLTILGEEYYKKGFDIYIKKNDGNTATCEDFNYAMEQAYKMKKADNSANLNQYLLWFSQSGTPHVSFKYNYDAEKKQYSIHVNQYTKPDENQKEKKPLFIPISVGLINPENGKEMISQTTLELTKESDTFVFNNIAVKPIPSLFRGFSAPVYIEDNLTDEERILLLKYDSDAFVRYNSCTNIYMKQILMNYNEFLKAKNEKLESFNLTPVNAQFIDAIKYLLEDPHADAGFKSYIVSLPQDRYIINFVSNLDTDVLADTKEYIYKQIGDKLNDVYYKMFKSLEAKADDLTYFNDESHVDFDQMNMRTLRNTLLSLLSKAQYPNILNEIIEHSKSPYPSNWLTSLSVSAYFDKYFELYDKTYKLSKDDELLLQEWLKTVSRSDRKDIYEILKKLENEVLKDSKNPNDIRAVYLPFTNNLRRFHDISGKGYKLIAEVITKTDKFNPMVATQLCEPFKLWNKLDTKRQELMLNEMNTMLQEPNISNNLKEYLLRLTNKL

Protein RecA = target: T4, Protein RecA (Mycobacterium tuberculosis, UniProt P9WHJ3); test: Fluorescence Cell-Free Homogeneous Dose Retest to Identify Inhibitors of RecA-Intein Splicing Activity. [Related pubchem assays (depositor defined):AID2097, AID2223, AID489010, AID492950]; format: functional
T4 sequence (P9WHJ3 whole entry): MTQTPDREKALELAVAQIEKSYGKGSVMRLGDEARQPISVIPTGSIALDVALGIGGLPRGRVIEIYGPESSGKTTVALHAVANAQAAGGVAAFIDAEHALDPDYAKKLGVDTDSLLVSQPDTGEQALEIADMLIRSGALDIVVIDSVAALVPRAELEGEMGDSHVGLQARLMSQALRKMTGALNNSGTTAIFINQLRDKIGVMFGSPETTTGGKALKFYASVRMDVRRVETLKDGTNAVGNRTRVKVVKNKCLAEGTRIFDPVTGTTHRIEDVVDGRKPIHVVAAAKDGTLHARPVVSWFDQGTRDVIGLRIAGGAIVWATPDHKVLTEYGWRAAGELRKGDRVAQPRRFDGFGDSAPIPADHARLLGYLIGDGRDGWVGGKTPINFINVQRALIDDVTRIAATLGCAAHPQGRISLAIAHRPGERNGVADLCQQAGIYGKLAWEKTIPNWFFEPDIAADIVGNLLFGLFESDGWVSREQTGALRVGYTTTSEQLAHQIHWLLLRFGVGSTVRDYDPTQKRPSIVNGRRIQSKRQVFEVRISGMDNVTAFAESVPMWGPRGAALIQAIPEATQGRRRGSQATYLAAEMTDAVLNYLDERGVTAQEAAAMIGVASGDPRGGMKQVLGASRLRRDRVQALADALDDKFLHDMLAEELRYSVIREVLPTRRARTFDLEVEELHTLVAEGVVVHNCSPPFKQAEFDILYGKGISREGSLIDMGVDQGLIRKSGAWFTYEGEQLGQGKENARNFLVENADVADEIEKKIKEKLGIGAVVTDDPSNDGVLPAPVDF

[9] = target: T5, RNA-binding protein pos-1 (Caenorhabditis elegans, UniProt G5EF15); test: inhibitors of POS-1/mex-3 RNA binding, dose response, biochemical, fluorescence polarization (AID 1964);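 further: purified POS-1 fused to maltose binding protein made in E. coli; potency of compounds blocking POS-1 binding to fluorescent RNA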
T5 sequence (G5EF15 whole entry): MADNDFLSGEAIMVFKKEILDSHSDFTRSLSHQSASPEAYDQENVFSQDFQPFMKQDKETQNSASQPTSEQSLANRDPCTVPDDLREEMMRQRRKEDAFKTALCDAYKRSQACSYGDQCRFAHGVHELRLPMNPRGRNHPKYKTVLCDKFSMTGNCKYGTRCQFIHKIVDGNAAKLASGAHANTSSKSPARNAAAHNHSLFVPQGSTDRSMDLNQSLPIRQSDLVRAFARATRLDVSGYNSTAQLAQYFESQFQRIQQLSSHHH

[10] = target: T6, Zinc finger protein mex-5 (Caenorhabditis elegans, UniProt Q9XUB2); test: MEX-5/TCR-2 RNA interaction inhibitors, dose response, biochemical, C. elegans, fluorescence polarization (AID 1960)
T6 sequence (Q9XUB2 whole entry): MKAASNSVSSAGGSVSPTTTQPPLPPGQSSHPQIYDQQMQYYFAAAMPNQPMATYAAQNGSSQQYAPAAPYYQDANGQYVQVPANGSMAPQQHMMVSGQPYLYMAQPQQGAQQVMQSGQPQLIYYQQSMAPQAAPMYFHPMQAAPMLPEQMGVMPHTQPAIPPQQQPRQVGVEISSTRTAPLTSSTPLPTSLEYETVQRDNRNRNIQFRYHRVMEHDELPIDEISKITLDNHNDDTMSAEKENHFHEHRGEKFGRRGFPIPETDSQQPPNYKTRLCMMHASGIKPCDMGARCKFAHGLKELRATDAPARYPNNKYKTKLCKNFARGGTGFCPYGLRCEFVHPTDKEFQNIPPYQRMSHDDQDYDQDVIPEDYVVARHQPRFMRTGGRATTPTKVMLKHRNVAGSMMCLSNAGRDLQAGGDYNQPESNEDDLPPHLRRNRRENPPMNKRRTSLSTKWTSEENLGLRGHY

DNA dC->dU-editing enzyme APOBEC-3A, sequence (P31941 whole entry): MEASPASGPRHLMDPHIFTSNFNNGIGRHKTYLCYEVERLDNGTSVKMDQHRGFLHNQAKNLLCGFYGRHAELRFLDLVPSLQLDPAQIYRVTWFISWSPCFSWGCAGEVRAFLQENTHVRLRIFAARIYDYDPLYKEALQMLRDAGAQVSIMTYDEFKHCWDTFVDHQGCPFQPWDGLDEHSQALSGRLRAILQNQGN

| Compound | IC50 [1] | IC50 [2] | IC50 (Coagulation factor XII) | further results |
| --- | --- | --- | --- | --- |
| COC(=O)C(C)N1C(=O)S/C(=C\c2ccc(-c3ccc(C(=O)O)cc3C)o2)C1=O (centres undefined) | 5.66 µM (active) | 4.97 µM (active) | – | – |
| O=C(Nc1ccc(F)cc1)Nc1cc(OCC(F)(F)F)cc(OCC(F)(F)F)c1 | – | – | > 50 µM (inactive) | AC50 [3]: 4.1 µM (active); AC50 [4]: 4.59 µM (active); AC50 (INS1): 2.01 µM (active); AC50 [5]: 2.46 µM (active) |
| C=CCNC(=O)CN(c1ccc(F)cc1)S(=O)(=O)c1ccc(OC)cc1 | – | – | > 50 µM (inactive) | – |
| O=C(Nc1ccc(NC(=O)c2ccc(Cl)cc2Cl)cc1)c1cccs1 | 10.6 µM (active) | 11.8 µM (active) | – | – |
| CCN1CCN(c2ccc(S(=O)(=O)N3CCCCC3)cc2NC(=O)c2cccc(C(F)(F)F)c2)CC1 | 7.71 µM (active) | 13.2 µM (active) | – | EC50 [6]: > 30 µM (not active); EC50 [7]: 1.09 µM (active) |
| C=CCn1c(NC(=O)c2ccc(Br)o2)c(S(=O)(=O)c2ccccc2)c2nc3ccccc3nc21 | – | – | – | AC50 [8]: 10.6 µM (active); IC50 (Aminopeptidase N): 17.4 µM (active); EC50 (Protein RecA): > 380 µM (inconclusive) |
| CCOC(=O)C1CCN(S(=O)(=O)c2ccc3c(c2)CC(=O)N3C)CC1 | 2.81 µM (active) | 4 µM (active) | – | – |
| Nn1c(Cc2cccc3ccccc23)nnc1SCCOc1ccc(F)cc1 | – | – | > 50 µM (inactive) | – |
| Cc1cc(NC(=O)COC(=O)c2cccc(S(=O)(=O)N(C)C3CCCCC3)c2)no1 | – | – | > 50 µM (inactive) | – |
| COc1cc2ccccc2cc1C(=O)NC(=S)Nc1cc(C(=O)O)ccc1C | – | – | > 50 µM (inactive) | EC50 [9]: > 300 µM (not active); EC50 [10]: > 300 µM (not active) |
| CC[n+]1c(C)n(Cc2ccccc2)c2ccc(C(=O)OC)cc21 | 2.88 µM (active) | 3.62 µM (active) | – | – |
| C[n+]1cccc(C(=O)N/N=C/c2ccc3c(c2)OCO3)c1 | 3.15 µM (active) | 8.99 µM (active) | – | – |
| Cc1n[nH]c(C)c1CCC(=O)N/N=C/c1cccs1 | – | – | > 50 µM (inactive) | – |
